According to patent US20050197338A1, “Substituted pyrazole urea compounds for the treatment of inflammation” (priority 2003, published 2005):

Molecular target: T1, human IKK-2 (rhIKK-2 homodimer) (Homo sapiens, UniProt O14920)
T1 construct: FLAG (DYKDDDDKD) (C); made in house; host or cells: insect cells (baculovirus, pFastBac)
T1 sequence (O14920 1-756): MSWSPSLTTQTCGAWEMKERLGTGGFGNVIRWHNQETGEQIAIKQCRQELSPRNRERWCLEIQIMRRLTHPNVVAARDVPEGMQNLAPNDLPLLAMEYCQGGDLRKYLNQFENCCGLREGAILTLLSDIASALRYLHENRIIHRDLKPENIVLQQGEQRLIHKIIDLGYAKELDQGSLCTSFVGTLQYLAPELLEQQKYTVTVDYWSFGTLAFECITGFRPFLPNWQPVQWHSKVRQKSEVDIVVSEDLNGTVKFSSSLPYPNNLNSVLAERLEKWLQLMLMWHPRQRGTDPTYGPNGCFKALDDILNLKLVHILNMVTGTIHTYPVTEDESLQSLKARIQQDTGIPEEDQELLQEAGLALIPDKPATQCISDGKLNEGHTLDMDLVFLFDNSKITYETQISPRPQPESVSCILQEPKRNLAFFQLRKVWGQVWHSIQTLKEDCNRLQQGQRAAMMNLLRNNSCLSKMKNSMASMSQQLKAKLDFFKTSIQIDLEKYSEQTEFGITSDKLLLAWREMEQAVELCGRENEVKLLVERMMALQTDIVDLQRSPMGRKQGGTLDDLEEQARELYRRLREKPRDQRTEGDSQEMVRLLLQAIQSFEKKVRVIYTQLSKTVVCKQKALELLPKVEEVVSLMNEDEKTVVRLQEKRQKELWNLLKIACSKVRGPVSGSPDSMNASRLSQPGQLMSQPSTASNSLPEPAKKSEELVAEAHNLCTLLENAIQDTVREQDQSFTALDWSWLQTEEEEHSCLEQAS
Test: IKK-2 Resin Enzyme Assay (Human IKK-2 Enzyme Assay)
Assay type: biochemical
Details: human IKK-2, resin enzyme assay; read-out: IC50 (μM) hIKK-2
In short: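 C-terminally FLAG-tagged human IKK-2 homodimer, baculovirus-expressed in insect cells and anti-FLAG purified. Reaction mix: 5 μM biotinylated IκBα peptide (Ser32/Ser36 region), 1 μM ATP with [γ-33P]ATP, 2 mM MgCl2, 2 mM MnCl2, 10 mM NaF, 1 mM DTT, 25 mM HEPES pH 7.6. Incubated 30 min at 25 °C; IC50 derived.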

NC(=O)Nc1cn(-c2ccc(-c3ccc(F)cc3O)cc2)nc1C(N)=O [Example 98, 4-[(aminocarbonyl)amino]-1-(4′-fluoro-2′-hydroxy-1,1′-biphenyl-4-yl)-1H-pyrazole-3-carboxamide] gave an IC50 of 1.04 µM.

N#CCOc1cc(F)ccc1-c1ccc(-n2cc(NC(N)=O)c(C(N)=O)n2)cc1 [Example 173, 4-[(aminocarbonyl)amino]-1-[2′-(cyanomethoxy)-4′-fluoro-1,1′-biphenyl-4-yl]-1H-pyrazole-3-carboxamide] was tested, and the IC50 was 0.15 µM.
